Values of other authors as cited in patent US8986935B2, “Methods for treating spinal muscular atrophy” (PTC Therapeutics, Inc., priority 2008, dated 2015).

Test system: SMN protein

CC[C@@]1(O)C[C@H](O[C@H]2C[C@H](N(C)C)[C@H](O[C@H]3C[C@H](O)[C@H](O[C@H]4CCC(=O)[C@H](C)O4)[C@H](C)O3)[C@H](C)O2)c2c(cc3c(c2O)C(=O)c2c(O)cccc2C3=O)[C@H]1C(=O)OC [aclarubicin]
SMN protein in cell culture: increase SMN protein
